Reference: publication PMC7400623, “Effect of lysine side chain length on histone lysine acetyltransferase catalysis” (Scientific Reports, 2020)

Experiments:
MOF (KAT8) = molecular target: T1, MOF (KAT8) (Homo sapiens, UniProt Q9H7Z6); assay: MALDI-TOF MS enzymatic assay of MOF-catalyzed acetylation of histone peptides; format: biochemical; conditions: 100 µM peptide, 300 µM AcCoA, pH 8.0, 37 °C; for acetylation (conversion to acetylated peptide) by MOF: after 3 h, 2 µM MOF, 50 mM Hepes, 0.1 mM EDTA, 1 mM DTT, MALDI-TOF MS
T1 construct: Human MOF catalytic domain (residues 125–458 in pET19b); His-tag; made in house; host or cells: E. coli BL21(DE3)
T1 sequence (Q9H7Z6 125-458): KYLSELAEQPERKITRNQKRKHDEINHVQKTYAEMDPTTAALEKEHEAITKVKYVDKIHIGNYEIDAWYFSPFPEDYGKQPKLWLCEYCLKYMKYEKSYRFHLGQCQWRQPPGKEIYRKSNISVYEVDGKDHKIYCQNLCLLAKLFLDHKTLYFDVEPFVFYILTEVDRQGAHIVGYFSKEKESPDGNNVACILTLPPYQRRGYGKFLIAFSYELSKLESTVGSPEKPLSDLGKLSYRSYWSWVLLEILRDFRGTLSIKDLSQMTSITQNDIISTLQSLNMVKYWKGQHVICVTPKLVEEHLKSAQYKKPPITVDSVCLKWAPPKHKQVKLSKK
Protocol: MALDI-TOF MS enzymatic assays were carried out to investigate KAT-catalyzed acetylation of synthetic histone peptides. The enzymatic activity of the recombinantly expressed human KATs was measured at different time points (2 µM KAT enzyme, 100 µM histone peptide, 300 µM AcCoA, buffer: 50 mM Hepes, 0.1 mM EDTA, 1 mM DTT, pH = 8.0, 37 °C, hereafter used as standard conditions) (Fig. 3b,c). […] It is noteworthy that diacetylation of histone peptides was not detected under our assay conditions, due to preacetylation of the secondary site on H3. […] As further control, H4 and H3 peptides containing stereochemically inverted D-lysine were synthesized.
The KAT enzymatic activity towards histone peptides was measured at different time points under standard conditions (2 µM KAT enzyme, 100 µM peptide, 300 µM AcCoA) in the reaction buffer (50 mM HEPES, 0.1 mM EDTA, 1 mM DTT, pH = 8.0). The reactions were carried out in a final volume of 50 µL and shaken up in a Thermomixer C at 750 rpm, at 37 °C. The reactions were quenched by the addition of TFA 10% in MilliQ water at different time points. All reactions were aliquoted and mixed 1:2 with a solution of α-Cyano-4-hydroxycinnamic acid (CHCCA) in 1:1 MQ and ACN (0.1% TFA) and loaded onto an MTP 384 polished steel target to be analyzed by a UltrafleXtreme-II tandem mass spectrometer (Bruker, Billerica, MA, USA).

MOF catalytic domain = molecular target: T2, MOF catalytic domain (Homo sapiens, UniProt Q9H7Z6); assay: MALDI-TOF MS kinetics assay, MOF; format: biochemical; conditions: for kcat^app / Km: MOF catalytic domain 570 nM (2 µM for unnatural analogs), peptide 1,050–0 µM, pH 7.4, 37 °C, MALDI-TOF MS, duplicates, value ± SD, SD; for kcat^app: AcCoA 100 µM (saturating), 50 mM HEPES, 0.1 mM EDTA, 0.01% TRITON-X; for Km: AcCoA 100 µM, read-out: Km^app; for kcat^app/Km^app: same kinetics conditions
T2 construct: Human MOF catalytic domain (residues 125–458 in pET19b); His-tag; made in house; host or cells: E. coli BL21(DE3)
T2 sequence (Q9H7Z6 125-458): T1 sequence (Q9H7Z6 125-458)
Source text: Kinetic analysis of bi-substrate enzymes, such as KATs, is reckoned to be challenging and dependent on many factors. Firstly, given the nature of these enzymes, the binding of one of the two substrates directly influences the binding of the other (with a direct effect on the Michaelis–Menten parameter Km). […] Therefore, to obtain data that would allow us to directly compare the catalytic properties of the selected KATs towards our selection of histone peptides bearing lysine analogs with longer side chains, two strategies to standardize our kinetic evaluation were taken: i) all the experiments were carried out with the same saturating concentrations of AcCoA and ii) only KATs catalytic domains were employed in the study. […] In contrast, kcat values decreased substantially with an increase of the side chain length, both in the K14 and K9 peptide series, and for both PCAF and GCN5 (Table 1).
Histone peptides kinetics evaluation was carried out with a MALDI-TOF MS assay under steady-state conditions[57],[58]. Histone peptides (1,050–0 µM) were incubated with AcCoA (100 µM) and the reactions were started by the addition of the enzyme (MOF 570 nM, PCAF and GCN5 50 nM) in a final volume of 20 µL in kinetic buffer (50 mM HEPES, 0.1 mM EDTA, 0.01% TRITON-X, pH = 7.4). For histone peptides bearing unnatural lysine analogs, higher concentration of enzymes was used (MOF, PCAF and GCN5 2 µM). […] AcCoA stock solutions in milli-Q water were calibrated with a NanoDrop 2000 spectrophotometer (Thermo Scientific, Waltham, MA, USA), employing the characteristic molar extinction coefficient ε260nm = 16,400 M^−1 cm^−1. Reactions were incubated at 37 °C, shaken at 750 rpm and quenched with TFA 10% in milli-Q water at different time points, within linear production of acetylated peptides extrapolated from time-course plots. All reactions were aliquoted and mixed 1:2 with a solution of α-cyano-4-hydroxycinnamic acid (CHCCA) in 1:1 MQ and ACN (0.1% TFA) and loaded onto MTP 384 polished steel target to be analyzed by UltrafleXtreme-II tandem mass spectrometer (Bruker). The amount of acetylated peptide was calculated by integration of the product peak area and divided it by the amount of unacetylated peptide, taking in account all the ionic species, at any concentration points using the FlexAnalysis software. Kinetic values were extrapolated by fitting V0 values (µM of produced peptide per minutes) and histone peptide concentrations to the Michaelis–Menten equation using the GraphPad Prism 5 software. Kinetic experiments were carried out in duplicates and final values are reported as value ± SD.

| Sequence | time to full acetylation by MOF (MOF (KAT8); standard conditions: 2 µM MOF) [min] | kcat^app (MOF catalytic domain) [s⁻¹] | Km (MOF catalytic domain) [µM] | kcat^app/Km^app (MOF catalytic domain; MOF) [M⁻¹ s⁻¹] | acetylation (conversion to acetylated peptide) by MOF (MOF (KAT8)) [%] | Km lower than that of H4hK16 (MOF catalytic domain; MOF) |
| --- | --- | --- | --- | --- | --- | --- |
| GGA K16 RHRKVLRDNIQ [H4K16, reference compound] | 30 | 0.385 ± 0.0167 | 593 ± 86 | 648 | – | – |
| GGA h2K16 RHRKVLRDNIQ [H4h2K16, 15-mer histone H4 peptide with h2K at position 16] | – | 0.001 ± 0.00017 | 82.2 ± 15 | 12 | 90 | fourfold lower |
| GGA hK 16 RHRKVLRDNIQ [H4hK16, 15-mer histone H4 peptide with hLys at position 16] | – | 0.0045 ± 0.0017 | 344 ± 99 | 13 | 95 | – |
